Our source for the IC50 and GI50 values is patent publication US12240844B2 (Voronoi, Inc., priority 2019, dated 2025).

Experiment [1] deals with T1, human GST-DYRK1A (full length) (Homo sapiens, UniProt Q13627).
T1 construct: purified human GST-DYRK1A (full length, Thermo scientifics) enzyme; GST; purchased Thermo scientifics
The experiment can be described thus: GST-DYRK1A enzyme inhibition, ADP-Glo kinase assay. The settings on record: read-out: DYRK1 IC50. The experiment is classed as biochemical. The method in brief:
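Full-length human GST-DYRK1A (10 ng) incubated with 10 uM ATP and specific substrate for 1 h at 25° C in 40 mM Tris-HCl pH 7.4, 20 mM MgCl2, 0.5 mg/mL BSA, 50 uM DTT. ADP formation read by ADP-Glo luminescence; IC50 (nM) versus solvent control, triplicate.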
(In ADP-Glo the light output rises with the ADP produced.)

In another experiment the test system is MDA-MB-231 cell line. The experiment can be described thus: MDA-MB-231 cancer cell proliferation inhibition (Cell Titer-Glo). The format is cell-based. The settings on record: Homo sapiens, MDA-MB-231 triple-negative breast cancer cell line, 72 hours. The procedure, abridged: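 GI50 comes from CellTiter-Glo luminescence, read 10 min after reagent addition at RT, following 72 h compound treatment. Eleven concentrations were used (⅓ steps, highest 10 μM final) on 2000 cells/well. MDA-MB-231 and MDA-MB-468 were grown in DMEM, SHP-77 in RPMI.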
For orientation: ATP-based viability assays read luminescence as a measure of living cells.

A further experiment addresses T2, TTK (Homo sapiens, UniProt P33981).
T2 sequence (P33981 1-857): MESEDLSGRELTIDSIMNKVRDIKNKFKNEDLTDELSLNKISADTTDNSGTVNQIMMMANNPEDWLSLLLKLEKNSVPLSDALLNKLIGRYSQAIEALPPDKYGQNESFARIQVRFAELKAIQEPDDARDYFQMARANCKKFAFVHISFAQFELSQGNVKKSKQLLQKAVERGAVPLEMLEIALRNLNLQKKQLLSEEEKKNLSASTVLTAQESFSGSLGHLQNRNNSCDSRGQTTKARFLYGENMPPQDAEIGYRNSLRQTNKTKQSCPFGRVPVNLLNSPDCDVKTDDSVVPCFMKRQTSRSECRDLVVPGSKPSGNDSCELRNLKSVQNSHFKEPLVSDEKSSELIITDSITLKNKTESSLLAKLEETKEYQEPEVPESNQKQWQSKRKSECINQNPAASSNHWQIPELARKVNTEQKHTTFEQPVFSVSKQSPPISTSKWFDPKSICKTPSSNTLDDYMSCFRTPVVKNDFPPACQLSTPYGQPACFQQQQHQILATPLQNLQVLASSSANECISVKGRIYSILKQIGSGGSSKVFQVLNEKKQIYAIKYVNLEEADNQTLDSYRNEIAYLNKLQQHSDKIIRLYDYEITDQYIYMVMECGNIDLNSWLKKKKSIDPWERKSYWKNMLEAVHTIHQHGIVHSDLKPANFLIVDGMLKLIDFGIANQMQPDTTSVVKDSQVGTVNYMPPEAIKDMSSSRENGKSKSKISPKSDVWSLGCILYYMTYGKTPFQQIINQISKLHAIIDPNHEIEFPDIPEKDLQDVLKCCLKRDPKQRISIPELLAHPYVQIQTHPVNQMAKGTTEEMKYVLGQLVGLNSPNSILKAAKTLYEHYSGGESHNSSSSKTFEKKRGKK
The experiment can be described thus: TTK enzyme inhibition, ADP-Glo kinase assay. The format is biochemical. The arrangement: purchased Signalchem T20-10G. The settings on record: ATP 5 μM. The method in brief:
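Recombinant human TTK (7.5 ng) reacted with 5 μM ATP and MBP substrate (0.2 μg) for 4 h at 25° C in Tris-HCl pH 7.4, MgCl2, BSA, DTT buffer, compound at 0.000017–1 μM. ADP formation by ADP-Glo luminescence; IC50 (nM) relative to solvent control.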

Each structure is given as a SMILES string. Bounds are passed on as bounds.

As to `CCNc1cc(Nc2ccc(P3(=O)CCN(C(C)=O)CC3)cc2OC)nc2[nH]cc(C(F)(F)F)c12` [Example 42, 1-(4-(4-((4-(ethylamino)-3-(trifluoromethyl)-1H-pyrrolo[2,3-b]pyridin-6-yl)amino)-3-methoxyphenyl)-4-oxido-1,4-azaphosphinan-1-yl)ethan-1-one], the 50% inhibitory concentration (IC50) (in experiment [1]; against TTK) was less than 0.1 µM in each case. Moreover, the concentration for 50% growth inhibition (GI50) (as a rule, the concentration at which growth is held to half of that of the control) with MDA-MB-231 cell line is 0.301 to 1 µM.

Consider `CCNc1cc(Nc2ccc(C(=O)N3C[C@@H]4C[C@H]3CO4)c3c2OCCO3)nc2[nH]cc(C(F)(F)F)c12` [Example 44, ((1S,4S)-2-oxa-5-azabicyclo[2.2.1]heptan-5-yl)(8-((4-(ethylamino)-3-(trifluoromethyl)-1H-pyrrolo[2,3-b]pyridin-6-yl)amino)-2,3-dihydrobenzo[b] [1,4]dioxin-5-yl)methanone], for which the IC50 (in experiment [1]; at TTK) was less than 0.1 µM each time. The molecule further showed a GI50 in the experiment with MDA-MB-231 cell line of 0.301 to 1 µM.

For the molecule `COCCNc1cc(Nc2ccc(C(=O)N3CCC(N4CCOCC4)CC3)c3c2OCC3)nc2[nH]cc(C(F)(F)F)c12` [Example 55, (7-((4-((2-methoxyethyl)amino)-3-(trifluoromethyl)-1H-pyrrolo[2,3-b]pyridin-6-yl)amino)-2,3-dihydrobenzofuran-4-yl)(4-morpholinopiperidin-1-yl)methanone], the figures for the IC50 (in experiment [1]; on TTK) were less than 0.1 µM and 0.101 to 0.3 µM, respectively. For the same molecule, in the experiment with MDA-MB-231 cell line, the GI50 was in the range of 0.301 to 1 µM.

`CCNc1cc(Nc2ccc(C(=O)N3CCC(N4CCOCC4)CC3)c3c2OCC3)nc2[nH]cc(C(F)(F)F)c12` [Example 90, (7-((4-(ethylamino)-3-(trifluoromethyl)-1H-pyrrolo[2,3-b]pyridin-6-yl)amino)-2,3-dihydrobenzofuran-4-yl)(4-morpholinopiperidin-1-yl)methanone]: the IC50 (in experiment [1]; against TTK) was less than 0.1 µM each time. The molecule also gave a GI50 in the experiment on MDA-MB-231 cell line of 0.301 to 1 µM.

With `O=C(c1ccc(Nc2cc(NC3CC3)c3c(C(F)(F)F)c[nH]c3n2)c2c1CCO2)N1CCC(N2CCOCC2)CC1` [Example 92, (7-((4-(cyclopropylamino)-3-(trifluoromethyl)-1H-pyrrolo[2,3-b]pyridin-6-yl)amino)-2,3-dihydrobenzofuran-4-yl)(4-morpholinopiperidin-1-yl)methanone], the 50% inhibitory concentration (IC50) (in experiment [1]; on TTK) was less than 0.1 µM throughout. In addition, the GI50 in the experiment with MDA-MB-231 cell line is 0.301 to 1 µM.

Consider `COCCNc1cc(Nc2ccc(S(=O)(=O)N3CCC(N4CCOCC4)CC3)c3c2OCCO3)nc2[nH]cc(C(F)(F)F)c12` [Example 97, N^4-(2-methoxyethyl)-N^6-(8-((4-morpholonopiperidin-1-yl)sulfonyl)-2,3-dihydrobenzo[b] [1,4]dioxin-5-yl)-3-(trifluoromethyl)-1H-pyrrolo[2,3-b]pyridine-4,6-diamine], for which the IC50 (in experiment [1]; against TTK) was 0.101 to 0.3 µM in each case. The molecule further registered a GI50 in the experiment with MDA-MB-231 cell line of 0.301 to 1 µM.

Regarding `CCNc1cc(Nc2ccc(C(=O)N3CCC(N4C[C@@H]5C[C@H]4CO5)CC3)c3c2OCC3)nc2[nH]cc(C(F)(F)F)c12` [Example 105, (4-((1S,4S)-2-oxa-5-azabicyclo[2.2.1]heptan-5-yl)piperidin-1-yl)(7-((4-(ethylamino)-3-(trifluoromethyl)-1H-pyrrolo[2,3-b]pyridin-6-yl)amino)-2,3-dihydrobenzofuran-4-yl)methanone], the IC50 (in experiment [1]; on TTK) was less than 0.1 µM each time. Further, in the experiment on MDA-MB-231 cell line, the GI50 was in the range of 0.301 to 1 µM.

Take `CNc1cc(Nc2ccc(P3(=O)CCN(C4CC4)CC3)cc2OC)nc2[nH]cc(C#N)c12` [Example 146, 6-((4-(1-cyclopropyl-4-oxido-1,4-azaphosphinan-4-yl)-2-methoxyphenyl)amino)-4-(methylamino)-1H-pyrrolo[2,3-b]pyridine-3-carbonitrile]: the IC50 (usually the midpoint of a concentration-inhibition curve) in experiment [1] is 0.301 to 1 µM; on TTK it was less than 0.1 µM. The GI50 in the experiment with MDA-MB-231 cell line was in the range of 0.301 to 1 µM.

Turning to `COCCNc1cc(Nc2ccc(P3(=O)CCN(C4CC4)CC3)cc2OC)nc2[nH]cc(C#N)c12` [Example 148, 6-((4-(1-cyclopropyl-4-oxido-1,4-azaphosphinan-4-yl)-2-methoxyphenyl)amino)-4-((2-methoxyethyl)amino)-1H-pyrrolo[2,3-b]pyridine-3-carbonitrile], the 50% inhibitory concentration (IC50) is 0.301 to 1 µM in experiment [1] and less than 0.1 µM against TTK. Also, in the experiment on MDA-MB-231 cell line, the GI50 is 0.301 to 1 µM.

On to `CCNc1cc(Nc2ccc(C(=O)N3CCN(C4COC4)CC3)c3c2OCCO3)nc2[nH]cc(C(F)(F)F)c12` [Example 173, (8-((4-(ethylamino)-3-(trifluoromethyl)-1H-pyrrolo[2,3-b]pyridin-6-yl)amino)-2,3-dihydrobenzo[b] [1,4]dioxin-5-yl)(4-(oxetan-3-yl)piperazin-1-yl)methanone], for which the half-inhibitory concentration (IC50) (in experiment [1]; at TTK) was less than 0.1 µM each time. In the experiment on MDA-MB-231 cell line, the GI50 was 0.301 to 1 µM.

On to `CNc1cc(Nc2ccc(P3(=O)CCN(C4CC4)CC3)cc2OC)nc2[nH]cc(C(F)(F)F)c12` [Example 205, 1-cyclopropyl-4-(3-methoxy-4-((4-(methylamino)-3-(trifluoromethyl)-1H-pyrrolo[2,3-b]pyridin-6-yl)amino)phenyl)-1,4-azaphosphinane 4-oxide], for which the half-maximal inhibitory concentration (IC50) (in experiment [1]; against TTK) was less than 0.1 µM throughout. The GI50 with MDA-MB-231 cell line fell in the range of 0.301 to 1 µM.

Turning to `COCCNc1cc(Nc2ccc(P3(=O)CCN(C4CC4)CC3)cc2OC)nc2[nH]cc(C(F)(F)F)c12` [Example 207, 1-cyclopropyl-4-(3-methoxy-4-((4-((2-methoxyethyl)amino)-3-(trifluoromethyl)-1H-pyrrolo[2,3-b]pyridin-6-yl)amino)phenyl)-1,4-azaphosphinane 4-oxide], the IC50 (in experiment [1]; against TTK) was less than 0.1 µM throughout. Besides, in the experiment with MDA-MB-231 cell line, the 50% growth inhibitory concentration (GI50) lay within 0.301 to 1 µM.

In the experiment on MDA-MB-231 cell line, `N#Cc1c[nH]c2nc(Nc3ccc(C(=O)N4CCC(N5CCOCC5)CC4)c4c3OCCO4)cc(C3CC3)c12` [Example 226, 4-cyclopropyl-6-((8-(4-morpholinopiperidine-1-carbonyl)-2,3-dihydrobenzo[b] [1,4]dioxin-5-yl)amino)-1H-pyrrolo[2,3-b]pyridine-3-carbonitrile] came in with a 50% growth inhibitory concentration (GI50) of 0.301 to 1 µM. For the same molecule, the half-maximal inhibitory concentration (IC50) against TTK is less than 0.1 µM.

In the experiment on MDA-MB-231 cell line, `COc1cc(S(=O)(=O)N2CCC(N3CCOCC3)CC2)ccc1Nc1cc(C2CC2)c2c(C#N)c[nH]c2n1` [Example 228, 4-cyclopropyl-6-((2-methoxy-4-((4-morpholinopiperidin-1-yl)sulfonyl)phenyl)amino)-1H-pyrrolo[2,3-b]pyridine-3-carbonitrile] yielded a GI50 of 0.051 to 0.1 µM. Also, at TTK, the half-maximal inhibitory concentration (IC50) was less than 0.1 µM.

On to `O=C(c1ccc(Nc2cc(C3CC3)c3c(C(F)(F)F)c[nH]c3n2)c2c1CCO2)N1CC[C@H](N2CCOCC2)C1` [Example 237, (S)-(7-((4-cyclopropyl-3-(trifluoromethyl)-1H-pyrrolo[2,3-b]pyridin-6-yl)amino)-2,3-dihydrobenzofuran-4-yl)(3-morpholinopyrrolidin-1-yl)methanone], for which, in the experiment on MDA-MB-231 cell line, the GI50 fell in the range of 0.301 to 1 µM. Further, the IC50 on TTK fell in the range of 0.101 to 0.3 µM.

In the experiment on MDA-MB-231 cell line, `O=C(c1ccc(Nc2cc(C3CC3)c3c(C(F)(F)F)c[nH]c3n2)c2c1CCO2)N1CC[C@@H](N2CCOCC2)C1` [Example 238, (R)-(7-((4-cyclopropyl-3-(trifluoromethyl)-1H-pyrrolo[2,3-b]pyridin-6-yl)amino)-2,3-dihydrobenzofuran-4-yl)(3-morpholinopyrrolidin-1-yl)methanone] showed a GI50 of 0.301 to 1 µM. This molecule had an IC50 on TTK of less than 0.1 µM.
